The values that follow come from article PMC9259647 (Scientific Reports, 2022).

What is called Kd is the equilibrium constant for the complex coming apart. For orientation: Vmax means the top rate of the reaction or transport when substrate is in excess. By kcat is commonly meant the number of substrate molecules converted per active site and unit of time at saturation.

Assay [1] deals with T1, HXYN2 (Humicola insolens, UniProt P55334).
T1 construct: made in house; host or cells: Pichia pastoris GS115 (vector pHIL-D2), purified from culture supernatant
T1 sequence (P55334 20-227): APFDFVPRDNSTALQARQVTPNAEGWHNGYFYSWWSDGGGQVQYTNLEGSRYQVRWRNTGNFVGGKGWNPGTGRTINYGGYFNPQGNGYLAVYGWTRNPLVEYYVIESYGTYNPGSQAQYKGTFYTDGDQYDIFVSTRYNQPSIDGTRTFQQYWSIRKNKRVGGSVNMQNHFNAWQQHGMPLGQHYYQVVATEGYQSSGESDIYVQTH
Nature of the assay: Effect of phenolic compounds on HXYN2 activity (DNS xylanase assay). It counts as biochemical, Humicola grisea var. thermoidea. As to conditions: for activating effect on HXYN2 activity: after 0 and 24 h of incubation.

In assay [2] the target is T1, HXYN2. In words: Isothermal titration calorimetry of HXYN2 with FA. The class given is binding, Humicola grisea var. thermoidea. As to the method: An initial spacing setting of 500 s and an initial injection of 2 µL were employed. The following 12 injections of 5 µL were performed with an interval spacing of 600 s. The final 16 injections comprised 10 µL, with an interval spacing of 600 s.
The heat released after each injection was calculated from the raw data by integration of the peaks after subtraction of the baseline. The binding isotherms were fitted to different models using the software ORIGIN v7 (OriginLab, Northampton, MA, USA) provided by MicroCal. The best fit was determined using only two parameters, namely the binding constant (K) and enthalpy (H) on each site, following selction of the total number of sites. […] Changes in Gibbs free energy (ΔG) were calculated by Eq. (3):3 ΔG=-RTlnKa=ΔH-TΔS
(In general: Isothermal titration calorimetry measures the heat released or taken up as one component is titrated into another.)

The target in assay [3] is T1, HXYN2. In words: Fluorescence quenching of HXYN2 by FA. As to conditions: range, acidic to basic pH. The class given is binding, Humicola grisea var. thermoidea. The protocol: HXYN2 in complex with FA was investigated by fluorescence quenching as a function of pH. Trp and Trp-Tyr emission measurements were performed at 25 °C, in triplicate, after excitation at 295 nm and 275 nm, respectively. Protein fluorescence emission was recorded in the range of 300 to 450 nm. A path length quartz cuvette of 1 cm and excitation and emission slit width of 5 nm were employed. Data intervals of 1 nm, gain medium, a response time of 2 s, and a scanning speed of 50 nm/min were used with two averaged spectra accumulations. Fluorescence quenching of 0.43 µM HXYN2 with 0 to 23.68 µM FA in 95% ethanol and 0.05 M of sodium acetate buffer at pH 4.0 and 0.05 M of Tris–HCl at pH 7.0 and pH 9.0 was performed using a Jasco ATS-443 Automatic titration (Jasco Analytical Instrument, Tokyo, Japan). The fluorescence intensity background and dilution were corrected. The Stern–Volmer linear regression (Eq. 4) of the relative […] of fluorescence intensity at 334 nm (F/F0) versus FA concentration was used to describe the fluorescence quenching of Trp accessible to the quencher[52]:4 F0/F=1+Kq∗τ0Q=1+KSVQ where F and F0 are the fluorescence intensities at 334 nm, in the presence and absence of FA, respectively, Q is the concentration of the quencher, and Ksv is the Stern–Volmer constant. […]

In assay [4] the test system is HXYN2.
In assay [5] the test system is HXYN2. Nature of the assay: CD thermal unfolding of HXYN2 in the presence of FA. Particulars: pH 6.0, FA 60 µM; 63.5 °C without FA. Also on record: species or system Humicola grisea var. thermoidea. The protocol: Thermostability assays of HXYN2 were performed at pH 4.0, 6.0, 7.0 and 9.0 at 218 nm, corresponding to the structured region of β-sheet, with temperature ranging from 25 to 95 °C and data collection of 0.2 °C/min. In addition, the CD spectra were recorded at a step size of 0.2 nm at intervals of 10 °C using the same parameters described above. Thermal denaturation curves were plotted considering the molar ellipticity values (θ) versus temperature. The unfolded status of the protein (Fu) was calculated by Eq. (6):6 Fu=yN-y/yN-yU where, yN and yU represent the values of y (into molar ellipticity) characteristic of the folded and unfolded states, respectively. The normalized unfolding curves were adjusted using the Boltzmann equation and the Origin 8.1 software (OriginLab Corporation, Northampton, MA, USA) from which the melting temperature (Tm) was estimated.
The effect of FA on the secondary structure content of HXYN2 was also investigated by CD. Assays were performed with protein at concentration of 0.15 mg/mL in 5 mM Bis–Tris pH 6.0 and FA at concentration of 60 µM. A quartz cuvette of 0.05 cm path length was used to record the Far-UV CD spectra in the range from 260 to 190 nm at 25 °C. Thermostability assays of HXYN2 in the presence of FA at pH 6.0 were also performed, using the same parameters described above.

Assay [6] has as its system fungal cellulases and β-glucosidase. Details: method as in PMID 22112771. As to conditions: cited from earlier work.
The test system of assay [7] is GH10 xylanase from Penicillium chrysogenum. Details: method as in PMID 30654038. As to conditions: oat spelt xylan as a substrate; cited from earlier work.
Assay [8] relates to GH11 xylanase from Aspergillus tamarii. Particulars: birchwood xylan as a substrate; cited from earlier work.

Like-named read-outs stand apart in the source and are kept apart here.

In the case of `O=C(O)c1ccc(O)cc1` [4-hydroxybenzoic acid], the “activating effect on HXYN2 activity” value at HXYN2 [1] (1 mg/mL) was 20–75%.

Consider `COc1cc(/C=C/C(=O)O)ccc1O` [FA, 3-(4-hydroxy-3-methoxy-phenyl-prop-2-enoic)], for which the Kd at HXYN2 [2] (Kd, binding sites 2 and 4) is around 2.5 µM; at HXYN2 [2] (dissociation constant (Kd), range over four sites), 0.068 to 2.32 µM. In addition, on HXYN2 [2] (binding site 1, pH 6.0, 298 °K), the “K (binding constant)” value is 14.70 10^6 M^-1. For the same compound, the binding constant at HXYN2 [2] (binding sites 2 and 4) is ~ 0.4 × 10^6 M^−1. This compound showed a Gibbs free energy at HXYN2 [2] (range over four sites) of −5.5 to −10.0 kcal/mol. Further, the “increase in enzymatic activity of HXYN2 in comparison to the control” value on HXYN2 [1] (1 mg/mL, 0 and 24 h of incubation, beechwood xylan) is given as 60–75%. Besides, the activation at 1000 µg/mL at HXYN2 [1] (24 h, read-out: activating effect on HXYN2, after 24 h of incubation) was around 75%; at HXYN2 [1] (read-out: activating effect on HXYN2 activity, 1 mg/mL, after 0 and 24 h of incubation), 20 to 75%; at HXYN2 [1] (read-out: increase in enzymatic activity of HXYN2 in comparison to the control, 1 mg/mL, 0 and 24 h of incubation, beechwood xylan), 75%. Moreover, the “bimolecular quenching constant, Kq” value at HXYN2 [3] fell in the range of 3.2e+11 to 6.5e+11 M⁻¹ s⁻¹. The Vmax in the assay on HXYN2 [4] (FA 0.25 mg/mL) came out at 56.71 ± 1.11 µmol/min; with HXYN2 [4] (FA 0.5 mg/mL), 117.21 ± 1.26 µmol/min; in the assay on HXYN2 [4] (FA 1 mg/mL), 167.22 ± 8.12 µmol/min. Besides, the kcat with HXYN2 [4] (FA 0.25 mg/mL) was 2.363 s⁻¹; in the assay with HXYN2 [4] (FA 0.5 mg/mL), 4.8837 s⁻¹; in the assay on HXYN2 [4] (FA 1 mg/mL), 6.9678 s⁻¹. Moreover, in the assay with HXYN2 [5], the “Tm of HXYN2 in the presence of FA” value amounted to 54.1 °C.

Consider `O=C(O)c1cc(O)c(O)c(O)c1` [gallic acid], for which, on HXYN2 [1] (1 mg/mL), the “activating effect on HXYN2 activity” value is on record as 20–75%.

On to `O=C(O)/C=C/c1ccc(O)cc1` [p-coumaric acid], for which the “activating effect on HXYN2 activity” value at HXYN2 [1] (1 mg/mL) was 20–75%.

For the compound `COc1cc(C=O)cc(OC)c1O` [syringaldehyde], on HXYN2 [1] (1 mg/mL), the “activating effect on HXYN2 activity” value is 20–75%.

With `O=C(O)/C=C/c1ccccc1` [trans-cinnamic acid], the “activating effect on HXYN2 activity” value on HXYN2 [1] (1 mg/mL) was 20–75%.

As for `COc1cc(C=O)ccc1O` [vanillin], the “activating effect on HXYN2 activity” value on HXYN2 [1] (1 mg/mL) is on record as 20–75%.

Take tannic acid: the “reduction in HXYN2 activity” value at HXYN2 [1] (1 mg/mL, pre-incubation 0 h) was 26%; on HXYN2 [1] (1 mg/mL, pre-incubation 24 h), 59%. The “deactivating effect on HXYN2” value on HXYN2 [1] (after 24 h of incubation) was around 59%. Besides, in assay [6], the inhibition entry is reported as “up to 80%”. Also, the inhibitory effect in assay [7] is recorded as 17%. The “increase in the activity” value in assay [8] is on record as 12%.
